In patent publication US20100267561A1, “HERBICIDAL PYRIDAZINONE DERIVATIVES” (priority 2007, published 2010):

Tests used:
Type in all cases: in vivo
[1] = test system: barnyardgrass (Echinochloa crus-galli); test: Test A pre-/postemergence plant response
Procedure, shortened: (§1)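 Seeds sown in loam–sand blend; test chemicals in non-phytotoxic solvent with surfactant applied preemergence as directed soil spray and, concurrently, postemergence to plants 2–10 cm tall at one- to two-leaf stage. Greenhouse ~10 days, then visual injury rating vs untreated controls on 0–100 scale (0 = no effect, 100 = complete control).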

[2] = test system: corn (Zea mays); test: Test A pre-/postemergence plant response
Procedure, shortened: as §1

[3] = test system: giant foxtail (Setaria faberi); test: Test A pre-/postemergence plant response
Procedure, shortened: as §1

[4] = test system: large crabgrass (Digitaria sanguinalis); test: Test A pre-/postemergence plant response
Procedure, shortened: as §1

[5] = test system: morningglory (Ipomoea coccinea); test: Test A pre-/postemergence plant response
Procedure, shortened: as §1

[6] = test system: pigweed (Amaranthus retroflexus); test: Test A pre-/postemergence plant response
Procedure, shortened: as §1

[7] = test system: velvetleaf (Abutilon theophrasti); test: Test A pre-/postemergence plant response
Procedure, shortened: as §1

[8] = test system: wheat (Triticum aestivum); test: Test A pre-/postemergence plant response
Procedure, shortened: as §1

[9] = test system: green foxtail (Setaria viridis); test: Test B pre-/postemergence plant response
Excerpt: (§2) Seeds of plant species selected from blackgrass (Alopecurus myosuroides), downy bromegrass (Bromus tectorum), green foxtail (Setaria viridis), Italian ryegrass (Lolium multiflorum), wheat (Triticum aestivum), wild oat (Avena fatua), catchweed bedstraw (Galium aparine), bermudagrass (Cynodon dactylon), surinam grass (Brachiaria decumbens), cocklebur (Xanthium strumarium), corn (Zea mays), large crabgrass (Digitaria sanguinalis), woolly cupgrass (Eriochloa villosa), giant foxtail (Setaria faberii), goosegrass (Eleusine indica), johnsongrass (Sorghum halepense), kochia (Kochia scoparia), lambsquarters (Chenopodium album), morningglory (Ipomoea coccinea), eastern black (E.B.) nightshade (Solanum ptycanthum), yellow nutsedge (Cyperus esculentus), pigweed (Amaranthus retroflexus), common ragweed (Ambrosia elation), Russian thistle (Salsola iberica), soybean (Glycine max), common (oilseed) sunflower (Helianthus annuus), and velvetleaf (Abutilon theophrasti) were planted and treated preemergence with test chemicals formulated in a non-phytotoxic solvent mixture which included a surfactant.
(§3) At the same time, plants selected from these crop and weed species and also winter barley (Hordeum vulgare), canarygrass (Phalaris minor), chickweed (Stellaria media) and windgrass (Apera spica-venti) were treated with postemergence applications of some of the test chemicals formulated in the same manner. Plants ranged in height from 2 to 18 cm (1- to 4-leaf stage) for postemergence treatments.
(§4) Plant species in the flooded paddy test consisted of rice (Oryza sativa), umbrella sedge (Cyperus difformis), ducksalad (Heteranthera limosa) and barnyardgrass (Echinochloa crus-galli) grown to the 2-leaf stage for testing. At time of treatment, test pots were flooded to 3 cm above the soil surface, treated by application of test compounds directly to the paddy water, and then maintained at that water depth for the duration of the test. Treated plants and controls were maintained in a greenhouse for 13 to 15 days, after which time all species were compared to controls and visually evaluated. Plant response ratings, summarized in Table B, are based on a scale of 0 to 100 where 0 is no effect and 100 is complete control. A dash (-) response means no test result.

[10] = test system: johnsongrass (Sorghum halepense); test: Test B pre-/postemergence plant response
Excerpt: as §2, §3, §4

[11] = test system: wheat (Triticum aestivum); test: Test B pre-/postemergence plant response
Excerpt: as §2, §3, §4

[12] = Postemergence, 31 g ai/ha, 0 to 100 scale (0 no effect, 100 complete control)
[13] = Postemergence, 125 g ai/ha, 0 to 100 scale, 0 no effect, 100 complete control
[14] = Preemergence, 31 g ai/ha, 0 to 100 scale, 0 is no effect, 100 is complete control
[15] = Preemergence, 125 g ai/ha, 0 to 100 scale (0 no effect, 100 complete control)
[16] = 8 g ai/ha, postemergence, 0-100 scale
[17] = Postemergence, 16 g ai/ha, scale 0 to 100
[18] = Postemergence, 31 g ai/ha, scale 0 to 100, 0 no effect, 100 complete control
[19] = Postemergence, 62 g ai/ha, scale 0 to 100, 0 no effect, 100 complete control
[20] = Preemergence, 16 g ai/ha, scale 0 to 100 (0 no effect, 100 complete control)
[21] = Preemergence, 31 g ai/ha, 0 to 100 scale, 0 no effect, 100 complete control
[22] = Preemergence, 62 g ai/ha, scale 0 to 100
[23] = Preemergence, 8 g ai/ha, scale 0 to 100
[24] = Postemergence, 31 g ai/ha, scale 0 to 100
[25] = Preemergence, 31 g ai/ha, scale 0 to 100 (0 no effect, 100 complete control)
[26] = Preemergence, 62 g ai/ha, 0 to 100 scale, 0 no effect, 100 complete control
[27] = Preemergence, 16 g ai/ha, scale 0 to 100
[28] = 16 g ai/ha, postemergence, 0-100 scale

SMILES: COC(=O)Oc1cnn(C)c(=O)c1-n1nc(-c2ccc(Cl)cc2)cc1C [Compound 33]
- Plant response rating, Barnyardgrass [1, 12]: 90
- Plant response rating, Barnyardgrass [1, 13]: 100
- Plant response rating, Barnyardgrass [1, 14]: 100
- Plant response rating, Barnyardgrass [1, 15]: 100
- Plant response rating, Corn [2, 12]: 60
- Plant response rating, Corn [2, 13]: 90
- Plant response rating, Corn [2, 14]: 30
- Plant response rating, Corn [2, 15]: 90
- Plant response rating, Foxtail, Giant [3, 12]: 90
- Plant response rating, Foxtail, Giant [3, 13]: 100
- Plant response rating, Foxtail, Giant [3, 14]: 100
- Plant response rating, Foxtail, Giant [3, 15]: 100
- Plant response rating, Crabgrass, Large [4, 12]: 90
- Plant response rating, Crabgrass, Large [4, 13]: 100
- Plant response rating, Crabgrass, Large [4, 14]: 90
- Plant response rating, Crabgrass, Large [4, 15]: 100
- Plant response rating, Morningglory [5, 12]: 0
- Plant response rating, Morningglory [5, 13]: 0
- Plant response rating, Morningglory [5, 14]: 0
- Plant response rating, Morningglory [5, 15]: 0
- Plant response rating, Pigweed [6, 12]: 0
- Plant response rating, Pigweed [6, 13]: 0
- Plant response rating, Pigweed [6, 15]: 0
- Plant response rating, Velvetleaf [7, 12]: 0
- Plant response rating, Velvetleaf [7, 13]: 0
- Plant response rating, Velvetleaf [7, 14]: 0
- Plant response rating, Velvetleaf [7, 15]: 0
- Plant response rating, Wheat [8, 12]: 20
- Plant response rating, Wheat [8, 13]: 70
- Plant response rating, Wheat [8, 14]: 50
- Plant response rating, Wheat [8, 15]: 80
- Foxtail, Green plant response rating [9, 16]: 85
- Plant response rating, Foxtail, Green [9, 17]: 85
- Plant response rating, Foxtail, Green [9, 18]: 100
- Plant response rating, Foxtail, Green [9, 19]: 100
- Plant response rating, Foxtail, Green [9, 20]: 100
- Plant response rating, Foxtail, Green [9, 21]: 100
- Plant response rating, Foxtail, Green [9, 22]: 100
- Foxtail, Green plant response rating [9, 23]: 100
- Johnsongrass plant response rating [10, 16]: 70
- Plant response rating, Johnsongrass [10, 17]: 70
- Plant response rating, Johnsongrass [10, 18]: 85
- Plant response rating, Johnsongrass [10, 19]: 90
- Plant response rating, Johnsongrass [10, 20]: 95
- Plant response rating, Johnsongrass [10, 21]: 98
- Plant response rating, Johnsongrass [10, 22]: 100
- Johnsongrass plant response rating [10, 23]: 60
- Wheat plant response rating [11, 16]: 20
- Plant response rating, Wheat [11, 17]: 70
- Plant response rating, Wheat [11, 19]: 98
- Plant response rating, Wheat [11, 20]: 0
- Plant response rating, Wheat [11, 21]: 50
- Plant response rating, Wheat [11, 22]: 80
- Wheat plant response rating [11, 23]: 0

SMILES: CCc1cc(-c2ccc(C(F)(F)F)cc2)nn1-c1c(O)cnn(CC)c1=O [Compound 67]
- Plant response rating, Barnyardgrass [1, 12]: 100
- Plant response rating, Barnyardgrass [1, 13]: 100
- Plant response rating, Barnyardgrass [1, 14]: 0
- Plant response rating, Barnyardgrass [1, 15]: 100
- Plant response rating, Corn [2, 12]: 90
- Plant response rating, Corn [2, 13]: 100
- Plant response rating, Corn [2, 14]: 20
- Plant response rating, Corn [2, 15]: 80
- Plant response rating, Foxtail, Giant [3, 12]: 100
- Plant response rating, Foxtail, Giant [3, 13]: 100
- Plant response rating, Foxtail, Giant [3, 14]: 40
- Plant response rating, Foxtail, Giant [3, 15]: 100
- Plant response rating, Crabgrass, Large [4, 12]: 80
- Plant response rating, Crabgrass, Large [4, 13]: 100
- Plant response rating, Crabgrass, Large [4, 14]: 20
- Plant response rating, Crabgrass, Large [4, 15]: 90
- Plant response rating, Morningglory [5, 12]: 0
- Plant response rating, Morningglory [5, 13]: 0
- Plant response rating, Morningglory [5, 14]: 0
- Plant response rating, Morningglory [5, 15]: 0
- Plant response rating, Pigweed [6, 12]: 0
- Plant response rating, Pigweed [6, 13]: 0
- Plant response rating, Pigweed [6, 14]: 0
- Plant response rating, Pigweed [6, 15]: 0
- Plant response rating, Velvetleaf [7, 12]: 0
- Plant response rating, Velvetleaf [7, 13]: 0
- Plant response rating, Velvetleaf [7, 14]: 0
- Plant response rating, Velvetleaf [7, 15]: 0
- Plant response rating, Wheat [8, 12]: 90
- Plant response rating, Wheat [8, 13]: 100
- Plant response rating, Wheat [8, 14]: 20
- Plant response rating, Wheat [8, 15]: 90
- Foxtail, Green plant response rating [9, 16]: 65
- Plant response rating, Foxtail, Green [9, 17]: 70
- Plant response rating, Foxtail, Green [9, 24]: 98
- Plant response rating, Foxtail, Green [9, 19]: 100
- Plant response rating, Foxtail, Green [9, 25]: 100
- Plant response rating, Foxtail, Green [9, 26]: 100
- Foxtail, Green plant response rating [9, 23]: 100
- Foxtail, Green plant response rating [9, 27]: 100
- Johnsongrass plant response rating [10, 16]: 80
- Johnsongrass plant response rating [10, 28]: 98
- Plant response rating, Johnsongrass [10, 24]: 100
- Plant response rating, Johnsongrass [10, 19]: 100
- Plant response rating, Johnsongrass [10, 25]: 100
- Plant response rating, Johnsongrass [10, 26]: 100
- Johnsongrass plant response rating [10, 23]: 70
- Johnsongrass plant response rating [10, 27]: 90
- Wheat plant response rating [11, 16]: 95
- Wheat plant response rating [11, 28]: 100
- Plant response rating, Wheat [11, 24]: 100
- Plant response rating, Wheat [11, 19]: 100
- Plant response rating, Wheat [11, 25]: 100
- Plant response rating, Wheat [11, 26]: 100
- Wheat plant response rating [11, 27]: 70
